26 compounds from US11492347B2 (ENYO PHARMA, priority 2018, dated 2022) can be followed below.

This assay concerns H1N1 (influenza A/New Caledonia/20/99). In words: microbe, parasite or virus in culture. The note with it: H1N1, A549, 48 h. It counts as cell-based.

For orientation: IC50 means the concentration that gives 50% inhibition.

On to `CN(c1ccc(C(=O)Nc2sc3c(c2C(=O)O)CC(C)(C)CC3)cc1)C1CCOCC1` [#160, 5,5-Dimethyl-2-[[4-[methyl(tetrahydropyran-4-yl)amino]benzoyl]amino]-6,7-dihydro-4H-benzothiophene-3-carboxylic acid], for which half-maximal inhibition (IC50) was put at 6 nM.

Consider `CC1(C)CCc2sc(NC(=O)c3ccc(NC4CCOCC4)cc3)c(C(=O)O)c2C1` [#161, 5,5-Dimethyl-2-[[4-(tetrahydropyran-4-ylamino)benzoyl]amino]-6,7-dihydro-4H-benzothiophene-3-carboxylic acid], for which inhibition was half-maximal at 15 nM (IC50).

The compound `CC1(C)Cc2c(sc(NC(=O)c3ccc(OCC4CCOCC4)cc3)c2C(=O)O)C(C)(C)C1` [#162, 5,5,7,7-Tetramethyl-2-[[4-(tetrahydropyran-4-ylmethoxy)benzoyl]amino]-4,6-dihydrobenzothiophene-3-carboxylic acid] had an IC50 of 39 nM. For `COC1CN(c2ccc(C(=O)Nc3sc4c(c3C(=O)O)CC(C)(C)CC4)cc2)C1` [#163, 2-[[4-(3-Methoxyazetidin-1-yl)benzoyl]amino]-5,5-dimethyl-6,7-dihydro-4H-benzothiophene-3-carboxylic acid], the IC50 is 18 nM. Regarding `COC1CC(N(C)c2ccc(C(=O)Nc3sc4c(c3C(=O)O)CC(C)(C)CC4(C)C)cc2)C1` (centres unmarked) [#165, 2-[[4-[(3-Methoxycyclobutyl)-methyl-amino]benzoyl]amino]-5,5,7,7-tetramethyl-4,6-dihydrobenzothiophene-3-carboxylic acid], inhibition was half-maximal at 11.7 nM (IC50). To `CC1(C)Cc2c(sc(NC(=O)c3ccc(NCC4CCCCO4)cc3)c2C(=O)O)C(C)(C)C1` (centres unmarked) [#166, 5,5,7,7-Tetramethyl-2-[[4-(tetrahydropyran-2-ylmethylamino)benzoyl]amino]-4,6-dihydrobenzothiophene-3-carboxylic acid] belongs 6.7 nM.

Turning to `CC1(C)Cc2c(sc(NC(=O)c3ccc(OCC4COC4)cc3)c2C(=O)O)C(C)(C)C1` [#167, 5,5,7,7-Tetramethyl-2-[[4-(oxetan-3-ylmethoxy)benzoyl]amino]-4,6-dihydrobenzothiophene-3-carboxylic acid], the IC50 came to 108 nM. To `COCCOc1ccc(C(=O)Nc2sc3c(c2C(=O)O)CC(C)(C)CC3(C)C)cc1` [#168, 2-[[4-(2-Methoxyethoxy)benzoyl]amino]-5,5,7,7-tetramethyl-4,6-dihydrobenzothiophene-3-carboxylic acid] belongs 23.2 nM; to `COCC1CN(c2ccc(C(=O)Nc3sc4c(c3C(=O)O)CC(C)(C)CC4(C)C)cc2)C1` [#169, 2-[[4-[3-(Methoxymethyl)azetidin-1-yl]benzoyl]amino]-5,5,7,7-tetramethyl-4,6-dihydrobenzothiophene-3-carboxylic acid], 15.5 nM; to `CC1(C)Cc2c(sc(NC(=O)c3ccc(OC4CCOCC4)cc3)c2C(=O)O)C(C)(C)C1` [#170, 5,5,7,7-Tetramethyl-2-[(4-tetrahydropyran-4-yloxybenzoyl)amino]-4,6-dihydrobenzothiophene-3-carboxylic acid], 35 nM.

With `CC1CC(C)(C)Cc2sc(NC(=O)c3ccc(N(C)C4CCOCC4)cc3)c(C(=O)O)c21` (centres unmarked) [#171], it took 6.3 nM to reach half-maximal inhibition (IC50). Compound `COCCNc1ccc(C(=O)Nc2sc3c(c2C(=O)O)CC(C)(C)CC3)cc1` [#173, 2-[[4-(2-Methoxyethylamino)benzoyl]amino]-5,5-dimethyl-6,7-dihydro-4H-benzothiophene-3-carboxylic acid] had an IC50 of 24 nM. Regarding `CC1(C)Cc2c(sc(NC(=O)c3ccc(C4CCOCC4)cc3)c2C(=O)O)C(C)(C)C1` [#174, 5,5,7,7-Tetramethyl-2-[(4-tetrahydropyran-4-ylbenzoyl)amino]-4,6-dihydrobenzothiophene-3-carboxylic acid], the IC50 was determined as 39 nM.

As for `Cn1cc(C(=O)Nc2sc3c(c2C(=O)O)CC(C)(C)CC3(C)C)cn1` [#176, 5,5,7,7-Tetramethyl-2-[(1-methylpyrazole-4-carbonyl)amino]-4,6-dihydrobenzothiophene-3-carboxylic acid], it took 460 nM to reach half-maximal inhibition (IC50). `CC1(C)Cc2c(sc(NC(=O)c3ccc(N4CCOCC4)nc3)c2C(=O)O)C(C)(C)C1` [#201, 5,5,7,7-Tetramethyl-2-[(6-morpholinopyridine-3-carbonyl)amino]-4,6-dihydrobenzothiophene-3-carboxylic acid]: it took 150 nM to reach half-maximal inhibition (IC50).

Regarding `Cn1cc(C(=O)Nc2sc3c(c2C(=O)O)CC(C)(C)CC3)cn1` [#202, 5,5-Dimethyl-2-[(1-methylpyrazole-4-carbonyl)amino]-6,7-dihydro-4H-benzothiophene-3-carboxylic acid], the IC50 worked out at 900 nM. With `CC1(C)CCc2c(sc(NC(=O)c3cccc(N4CCOCC4)c3)c2C(=O)O)C1` [#203, 6,6-Dimethyl-2-[(3-morpholinobenzoyl)amino]-5,7-dihydro-4H-benzothiophene-3-carboxylic acid], half-maximal inhibition (IC50) required 130 nM. Take `CC1(C)CCc2c(sc(NC(=O)c3ccc(N4CCOCC4)nc3)c2C(=O)O)C1` [#204, 6,6-Dimethyl-2-[(6-morpholinopyridine-3-carbonyl)amino]-5,7-dihydro-4H-benzothiophene-3-carboxylic acid]: the IC50 came out at 260 nM. Under `CC1(C)Cc2c(sc(NC(=O)c3ccncn3)c2C(=O)O)C(C)(C)C1` [#205, 5,5,7,7-Tetramethyl-2-(pyrimidine-4-carbonylamino)-4,6-dihydrobenzothiophene-3-carboxylic acid] stands 740 nM; under `CC1(C)CCc2c(sc(NC(=O)c3cnc(N4CCOCC4)nc3)c2C(=O)O)C1` [#208, 6,6-Dimethyl-2-[(2-morpholinopyrimidine-5-carbonyl)amino]-5,7-dihydro-4H-benzothiophene-3-carboxylic acid], 740 nM.

In turn, `CC1(C)CCc2sc(NC(=O)c3cnc(N4CCOCC4)nc3)c(C(=O)O)c2C1` [#209, 5,5-Dimethyl-2-[(2-morpholinopyrimidine-5-carbonyl)amino]-6,7-dihydro-4H-benzothiophene-3-carboxylic acid] showed an IC50 of 820 nM.

In the case of `Cn1cc(C(=O)Nc2sc3c(c2C(=O)O)CCC(C)(C)C3)cn1` [#212, 6,6-Dimethyl-2-[(1-methylpyrazole-4-carbonyl)amino]-5,7-dihydro-4H-benzothiophene-3-carboxylic acid], half-maximal inhibition (IC50) required 900 nM. As for `CC1(C)CCc2sc(NC(=O)c3cccc(N4CCOCC4)n3)c(C(=O)O)c2C1` [#213, 5,5-Dimethyl-2-[(6-morpholinopyridine-2-carbonyl)amino]-6,7-dihydro-4H-benzothiophene-3-carboxylic acid], the 50% inhibitory concentration (IC50) came out at 610 nM.

The compound `CC1(C)CCc2c(sc(NC(=O)c3cccc(N4CCOCC4)n3)c2C(=O)O)C1` [#219, 6,6-Dimethyl-2-[(6-morpholinopyridine-2-carbonyl)amino]-5,7-dihydro-4H-benzothiophene-3-carboxylic acid] yielded a half-maximal inhibitory concentration (IC50) of 510 nM.

In turn, `CC1(C)CCc2sc(NC(=O)c3ccnc(N4CCOCC4)c3)c(C(=O)O)c2C1` [#221, 5,5-Dimethyl-2-[(2-morpholinopyridine-4-carbonyl)amino]-6,7-dihydro-4H-benzothiophene-3-carboxylic acid] returned an IC50 of 380 nM.

`CC1(C)CCc2c(sc(NC(=O)c3ccnc(N4CCOCC4)c3)c2C(=O)O)C1` [#222, 6,6-Dimethyl-2-[(2-morpholinopyridine-4-carbonyl)amino]-5,7-dihydro-4H-benzothiophene-3-carboxylic acid] registered an IC50 of 51 nM.
